According to patent US20250235455A1, “AQUEOUS TICAGRELOR SOLUTIONS, METHOD OF MANUFACTURING AND USES” (HYLORIS DEVELOPMENTS SA, priority 2022, published 2025):
Marks after values point to notes of the source that are not given here.

How the values were obtained:
Type in all cases: physicochemical
[1] = Solubility of ticagrelor in HPβCD (appearance on shaking platform)
Protocol: In a first example two different types of cyclodextrin were used and compared for the solubilization of ticagrelor. An unbuffered stock solution of HPβCD or SBECD was made in water at the target concentrations of 20 w/w %, 25 w/w %, 30 w/w %, 35 w/w % and 40 w/w %. Ticagrelor was added slowly under vortex. Ticagrelor was used at concentrations of 5, 10 or 14 mg/ml in milli Q water. The ticagrelor-cyclodextrin solutions were left on a shaking platform. No sonification or heat was applied.

[2] = Impact of packaging on stability, HPβCD 32.5% w/w, 5 mM pH 7.5 phosphate buffer, 40° C./75% RH; conditions: for Assay: in %
Protocol: To study the potential impact of the packaging material on the stability of the ticagrelor-cyclodextrin inclusion complex a composition with 32.5% w/w HPβCD was prepared with procedures and precaution's similar to previous trials, samples were stored in transparent clear glass vials and amber colored glass vials at a temperature of 40° C./75% RH.

[3] = Impact of ticagrelor particle size on dissolution
Description: Two different particle size diameters for the ticagrelor active ingredient were screened, 5.5 and 15 micrometers. The pH and osmolality were not affected.

[4] = HPβCD 20% w/w, ticagrelor 5 mg/ml
[5] = HPβCD 20% w/w, ticagrelor 10 mg/ml
[6] = HPβCD 20% w/w, ticagrelor 14 mg/ml
[7] = HPβCD 25% w/w, ticagrelor 5 mg/ml
[8] = HPβCD 25% w/w, ticagrelor 10 mg/ml
[9] = HPβCD 25% w/w, ticagrelor 14 mg/ml
[10] = HPβCD 30% w/w, ticagrelor 5 mg/ml
[11] = HPβCD 30% w/w, ticagrelor 10 mg/ml
[12] = HPβCD 30% w/w, ticagrelor 14 mg/ml
[13] = HPβCD 35% w/w, ticagrelor 5 mg/ml
[14] = HPβCD 35% w/w, ticagrelor 10 mg/ml
[15] = HPβCD 35% w/w, ticagrelor 14 mg/ml
[16] = HPβCD 40% w/w, ticagrelor 5 mg/ml
[17] = HPβCD 40% w/w, ticagrelor 10 mg/ml
[18] = HPβCD 40% w/w, ticagrelor 14 mg/ml
[19] = Amber colour USP Type I Glass vials, 1 M
[20] = Amber colour USP Type I Glass vials, 2 M
[21] = Amber colour USP Type I Glass vials, 3 M
[22] = Amber colour USP Type I Glass vials, T0
[23] = Clear USP Type I Glass vials, 1 M
[24] = Clear USP Type I Glass vials, 2 M
[25] = Clear USP Type I Glass vials, 3 M
[26] = Clear USP Type I Glass vials, T0

CCCSc1nc(N[C@@H]2C[C@H]2c2ccc(F)c(F)c2)c2nnn([C@@H]3C[C@H](OCCO)[C@@H](O)[C@H]3O)c2n1 [Ticagrelor, (1S,2S,3R,5S)-3-{7-[(1R,2S)-2-(3,4-difluorophenyl)cyclopropylamino]5-(propylthio)-3H-(1,2,3)triazolo (4,5-D)pyrimidin-3-yl}-5-(2 hydroxyethoxy)cyclopentane-1,2-diol]
Appearance ([1]; 5 mg/ml ticagrelor with 25, 30, 35 and 40 w/w % HPβCD): Clear | Appearance on standing ([1]; 5 mg/ml, HPβCD 40%, 35% or 30% w/w in milliQ water, at least three days at room temperature and several days at 4° C.): remained clear | Appearance After 5 min of shaking [1, 4]: − (translucent solution with precipitation) | Appearance After 30 min of shaking [1, 4]: +/− | Appearance After 60 min of shaking [1, 4]: +/− | Appearance After 3 h of shaking [1, 4]: +/− | Appearance After overnight shaking [1, 4]: − (translucent solution with precipitation) | Appearance After 5 min of shaking [1, 5]: − (translucent solution with precipitation) | Appearance After 30 min of shaking [1, 5]: − (translucent solution with precipitation) | Appearance After 60 min of shaking [1, 5]: − (translucent solution with precipitation) | Appearance After 3 h of shaking [1, 5]: − (translucent solution with precipitation) | Appearance After overnight shaking [1, 5]: − (translucent solution with precipitation) | Appearance After 5 min of shaking [1, 6]: − (translucent solution with precipitation) | Appearance After 30 min of shaking [1, 6]: − (translucent solution with precipitation) | Appearance After 60 min of shaking [1, 6]: − (translucent solution with precipitation) | Appearance After 3 h of shaking [1, 6]: − (translucent solution with precipitation) | Appearance After overnight shaking [1, 6]: − (translucent solution with precipitation) | Appearance After 5 min of shaking [1, 7]: − (translucent solution with precipitation) | Appearance After 30 min of shaking [1, 7]: +/− | Appearance After 60 min of shaking [1, 7]: +/− | Appearance After 3 h of shaking [1, 7]: +/− | Appearance After overnight shaking ([1]; HPβCD 25% w/w, ticagrelor 5 mg/ml, after one hour of sonication): +* (clear, appeared completely dissolved) | Appearance After 5 min of shaking [1, 8]: − (translucent solution with precipitation) | Appearance After 30 min of shaking [1, 8]: − (translucent solution with precipitation) | Appearance After 60 min of shaking [1, 8]: − (translucent solution with precipitation) | Appearance After 3 h of shaking [1, 8]: − (translucent solution with precipitation) | Appearance After overnight shaking [1, 8]: − (translucent solution with precipitation) | Appearance After 5 min of shaking [1, 9]: − (translucent solution with precipitation) | Appearance After 30 min of shaking [1, 9]: − (translucent solution with precipitation) | Appearance After 60 min of shaking [1, 9]: − (translucent solution with precipitation) | Appearance After 3 h of shaking [1, 9]: − (translucent solution with precipitation) | Appearance After overnight shaking [1, 9]: − (translucent solution with precipitation) | Appearance After 5 min of shaking [1, 10]: − (translucent solution with precipitation) | Appearance After 30 min of shaking [1, 10]: +/− | Appearance After 60 min of shaking [1, 10]: +/− | Appearance After 3 h of shaking [1, 10]: +/− | Appearance After overnight shaking [1, 10]: + (clear, appeared completely dissolved) | Appearance After 5 min of shaking [1, 11]: − (translucent solution with precipitation) | Appearance After 30 min of shaking [1, 11]: − (translucent solution with precipitation) | Appearance After 60 min of shaking [1, 11]: − (translucent solution with precipitation) | Appearance After 3 h of shaking [1, 11]: − (translucent solution with precipitation) | Appearance After overnight shaking [1, 11]: − (translucent solution with precipitation) | Appearance After 5 min of shaking [1, 12]: − (translucent solution with precipitation) | Appearance After 30 min of shaking [1, 12]: − (translucent solution with precipitation) | Appearance After 60 min of shaking [1, 12]: − (translucent solution with precipitation) | Appearance After 3 h of shaking [1, 12]: − (translucent solution with precipitation) | Appearance After overnight shaking [1, 12]: − (translucent solution with precipitation) | Appearance After 5 min of shaking [1, 13]: +/− | Appearance After 30 min of shaking [1, 13]: +/− | Appearance After 60 min of shaking [1, 13]: +/− | Appearance After 3 h of shaking [1, 13]: +/− | Appearance After overnight shaking [1, 13]: + (clear, appeared completely dissolved) | Appearance After 5 min of shaking [1, 14]: − (translucent solution with precipitation) | Appearance After 30 min of shaking [1, 14]: +/− | Appearance After 60 min of shaking [1, 14]: +/− | Appearance After 3 h of shaking [1, 14]: +/− | Appearance After overnight shaking [1, 14]: + (clear, appeared completely dissolved) | Appearance After 5 min of shaking [1, 15]: − (translucent solution with precipitation) | Appearance After 30 min of shaking [1, 15]: +/− | Appearance After 60 min of shaking [1, 15]: +/− | Appearance After 3 h of shaking [1, 15]: +/− | Appearance After overnight shaking [1, 15]: +/− | Appearance After 5 min of shaking [1, 16]: + (clear, appeared completely dissolved) | Appearance After 30 min of shaking [1, 16]: + (clear, appeared completely dissolved) | Appearance After 60 min of shaking [1, 16]: + (clear, appeared completely dissolved) | Appearance After 3 h of shaking [1, 16]: + (clear, appeared completely dissolved) | Appearance After overnight shaking [1, 16]: + (clear, appeared completely dissolved) | Appearance After 5 min of shaking [1, 17]: − (translucent solution with precipitation) | Appearance After 30 min of shaking [1, 17]: +/− | Appearance After 60 min of shaking [1, 17]: +/− | Appearance After 3 h of shaking [1, 17]: +/− | Appearance After overnight shaking [1, 17]: + (clear, appeared completely dissolved) | Appearance After 5 min of shaking [1, 18]: − (translucent solution with precipitation) | Appearance After 30 min of shaking [1, 18]: +/− | Appearance After 60 min of shaking [1, 18]: +/− | Appearance After 3 h of shaking [1, 18]: +/− | Acetal impurity [2, 19]: 0.05% | Amine impurity [2, 19]: 0.04% | Description [2, 19]: clear | Regiomer [2, 19]: 0.01% | Sum Impurities >0.05 [2, 19]: 0.05% | Total impurity [2, 19]: 0.22% | Triol impurity [2, 19]: 0.02% | pH [2, 19]: 7.70 | Assay [2, 19]: 100.24 | Acetal impurity [2, 20]: 0.04% | Amine impurity [2, 20]: 0.04% | Description [2, 20]: clear | Regiomer [2, 20]: 0.02% | Sum Impurities >0.05 [2, 20]: 0.00% | Total impurity [2, 20]: 0.28% | Triol impurity [2, 20]: 0.04% | pH [2, 20]: 7.69 | Assay [2, 20]: 99.89 | Acetal impurity [2, 21]: 0.05% | Amine impurity [2, 21]: 0.06% | Description [2, 21]: clear | Regiomer [2, 21]: 0.04% | Sum Impurities >0.05 [2, 21]: 0.16% | Total impurity [2, 21]: 0.33% | Triol impurity [2, 21]: 0.05% | pH [2, 21]: 7.66 | Assay [2, 21]: 98.93 | Acetal impurity [2, 22]: 0.05% | Amine impurity [2, 22]: 0.04% | Description [2, 22]: clear | Regiomer [2, 22]: 0.00% | Sum Impurities >0.05 [2, 22]: 0.18% | Total impurity [2, 22]: 0.40% | Triol impurity [2, 22]: 0.04% | pH [2, 22]: 7.66 | Assay [2, 22]: 98.34 | Acetal impurity [2, 23]: 0.04% | Amine impurity [2, 23]: 0.04% | Description [2, 23]: clear | Regiomer [2, 23]: 0.01% | Sum Impurities >0.05 [2, 23]: 0.00% | Total impurity [2, 23]: 0.22% | Triol impurity [2, 23]: 0.03% | pH [2, 23]: 7.65 | Assay [2, 23]: 101.71 | Acetal impurity [2, 24]: 0.04% | Amine impurity [2, 24]: 0.04% | Description [2, 24]: clear | Regiomer [2, 24]: 0.02% | Sum Impurities >0.05 [2, 24]: 0.05% | Total impurity [2, 24]: 0.28% | Triol impurity [2, 24]: 0.05% | pH [2, 24]: 7.63 | Assay [2, 24]: 99.69 | Acetal impurity [2, 25]: 0.05% | Amine impurity [2, 25]: 0.06% | Description [2, 25]: clear | Regiomer [2, 25]: 0.04% | Sum Impurities >0.05 [2, 25]: 0.16% | Total impurity [2, 25]: 0.33% | Triol impurity [2, 25]: 0.05% | pH [2, 25]: 7.58 | Assay [2, 25]: 98.25 | Acetal impurity [2, 26]: 0.05% | Amine impurity [2, 26]: 0.04% | Description [2, 26]: clear | Regiomer [2, 26]: 0.00% | Sum Impurities >0.05 [2, 26]: 0.22% | Total impurity [2, 26]: 0.40% | Triol impurity [2, 26]: 0.05% | pH [2, 26]: 7.65 | Assay [2, 26]: 98.34 | Dissolution time ([3]; D90 5.5 μm, micronized): 33 min | Osmolality ([3]; D90 5.5 μm, micronized): 751 mOsm/kg | pH ([3]; D90 5.5 μm, micronized): 7.68 | Dissolution time ([3]; D90 15 μm, unmicronized): 125 min | Osmolality ([3]; D90 15 μm, unmicronized): 753 mOsm/kg | pH ([3]; D90 15 μm, unmicronized): 7.70
